From publication PMC4357015, “Structure, Function and Inhibition of the Phosphoethanolamine Methyltransferases of the Human Malaria Parasites Plasmodium vivax and Plasmodium knowlesi” (Scientific Reports, 2015)

Tests used:
Assay type in all cases: cell-based
pem1Δpem2Δ-pYES2.1-PvPMT = assay: yeast growth inhibition, pem1Δpem2Δ strain expressing PvPMT; details: 100 μM AQ
Procedure: Figure 5 PMT-dependent inhibition of growth and PC biosynthesis by amodiaquine and NSC158011. (A–C): Growth curves of pem1Δpem2Δ-pYES2.1-PkPMT (A), pem1Δpem2Δ-pYES2.1-PvPMT (B), or Wild Type-pYES2.1- (C) strains grown in minimal medium containing 4% galactose and 1 mM ethanolamine in the presence or absence of 100 μM choline and 100 μM amodiaquine (AQ) as indicated. Growth curves of pem1Δpem2Δ-pYES2.1-PkPMT (D), pem1Δpem2Δ-pYES2.1-PvPMT (E), or Wild Type-pYES2.1- (F) strains maintained in minimal medium containing 4% galactose and 1 mM ethanolamine in the presence or absence of 100 μM choline and 10 μM NSC158011.
pem1Δpem2Δ-pYES2.1, pem1Δpem2Δ-pYES2.1-PkPMT, pem1Δpem2Δ-pYES2.1-PvPMT, and pem1Δpem2Δ-pYES2.1-PfPMT yeast strains were pre-grown overnight in uracil dropout synthetic galactose (4%) (SG-URA) medium supplemented with 2 mM ethanolamine (Etn). Cells were diluted to an A600 = 0.001 in fresh SG-URA medium supplemented with 2 mM Etn in the presence or absence of 100 μM Choline (Cho). Cells were grown at 30°C and the growth was monitored by measuring the A600. […]

[1] = tested on: PC biosynthesis in pem1Δpem2Δ-pYES2.1-PvPMT; assay: phospholipid analysis of yeast pem1Δpem2Δ strain expressing PvPMT; details: 200 μM AQ
Procedure: (§1) Figure 6 PMT-dependent inhibition of PC biosynthesis by AQ and NSC158011. To assess the effect of AQ on phospholipid metabolism, […] and wild-type strains were grown in minimal medium containing 4% galactose and 2 mM ethanolamine in the absence or presence of 200 μM AQ, lipids were extracted and separated by TLC (A). Each lipid class was scrapped off the TLC plate and quantified by measuring phosphorus (B). The effect of NSC158011 on phospholipid biosynthesis was determined by [33P] orthophosphoric acid labeling as described in Material and Methods. Lipids were separated by TLC (C) and quantified by liquid scintillation spectrometry (D). For all assays, data were used to calculate the PC/PI + PA ratio. The data are represented as the mean ± S.D. of at least two independent experiments.
(§2) BY4741-pYes2.1 (wild-type) strains and the pem1Δpem2Δ strains harboring pYES2.1 vector, pYES2.1-PkPMT, pYES2.1-PvPMT or pYES2.1-PfPMT were pre-grown to mid-log phase at 30°C in SG-URA medium supplemented with Etn (2 mM) and Cho (2 mM). […] Each lipid class was excised from the plate and quantified by measuring phosphorus. […] After the growth, lipids were extracted and analyzed as described above. […] The resolved radioactive lipids were visualized by Phosphorimager (GE Typhoon) and quantified by liquid scintillation spectrometry as described.

[2] = tested on: PC biosynthesis in pem1Δpem2Δ-pYES2.1-PkPMT; assay: phospholipid analysis of yeast pem1Δpem2Δ strain expressing PkPMT; details: 200 μM AQ
Procedure: as §1, §2

CCN(CC)Cc1cc(Nc2ccnc3cc(Cl)ccc23)ccc1O [AQ, amodiaquine]
growth of pem1Δpem2Δ+PvPMT strain in media supplemented with choline (pem1Δpem2Δ-pYES2.1-PvPMT; 100 μM choline): no effect | growth of pem1Δpem2Δ+PvPMT strain (pem1Δpem2Δ-pYES2.1-PvPMT; ethanolamine medium without choline): significantly inhibited | effect on the synthesis of PE [1]: little to no effect | effect on the synthesis of PE [2]: little to no effect
